ChEMBL document CHEMBL3991601, “The target landscape of clinical kinase drugs” (Science, 2017)
Active and inactive are the calls of the source. On the calls: in the data inactive means no Kd found up to 30 µM.

What follows are compounds tested against PAS domain-containing serine/threonine-protein kinase (Homo sapiens, UniProt Q96RG2).

Structure (SMILES)	Kd
O=C(Nc1ccc(-c2ccnc(Nc3ccc(N4CCOCC4)cc3)n2)cc1)C1CCCN1 (stereo not given) [XL-019]	> 30 µM (inactive)

These compounds were tested against Serine/threonine-protein kinase 24 (Homo sapiens, UniProt Q9Y6E0).
Chain of Serine/threonine-protein kinase 24 (Q9Y6E0 whole entry): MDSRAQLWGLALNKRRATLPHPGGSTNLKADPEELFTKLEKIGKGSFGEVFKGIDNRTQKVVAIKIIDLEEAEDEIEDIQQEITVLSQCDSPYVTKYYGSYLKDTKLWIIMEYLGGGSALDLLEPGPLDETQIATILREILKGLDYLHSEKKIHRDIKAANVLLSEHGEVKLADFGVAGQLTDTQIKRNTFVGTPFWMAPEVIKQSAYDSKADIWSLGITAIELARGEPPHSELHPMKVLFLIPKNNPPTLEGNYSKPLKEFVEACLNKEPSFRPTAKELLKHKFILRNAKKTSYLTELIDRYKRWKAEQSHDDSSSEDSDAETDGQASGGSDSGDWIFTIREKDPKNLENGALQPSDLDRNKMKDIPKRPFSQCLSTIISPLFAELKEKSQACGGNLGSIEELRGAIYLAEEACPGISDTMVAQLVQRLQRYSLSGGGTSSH

Structure (SMILES)	Kd
C[C@@H](Nc1cc(F)cc(F)c1)c1cc(C(=O)N(C)C)cc2c(=O)cc(N3CCOCC3)oc12 [AZD-8186]	> 30 µM (inactive)
O=C(c1ccc(F)c(F)c1Nc1ccc(I)cc1F)N1CC(O)([C@@H]2CCCCN2)C1 [COBIMETINIB]	> 30 µM (inactive)
Cn1cc(-c2ccc(F)c(C(F)(F)F)c2)nc1C1CCN(c2ncnc3[nH]ncc23)CC1 [LY-2584702]	> 30 µM (inactive)
C=CC(=O)N1CCC(Oc2cc3c(Nc4ccc(Cl)c(Cl)c4F)ncnc3cc2OC)CC1 [POZIOTINIB]	> 30 µM (inactive)
C[C@@H](c1ccc2nccn2c1)n1nnc2ncc(-c3cnn(C)c3)nc21 [SAVOLITINIB]	> 30 µM (inactive)
CN1N=C(N)c2cn([C@@H]3O[C@H](COP(=O)(O)O)[C@@H](O)[C@H]3O)c3ncnc1c23 [TRICIRIBINE PHOSPHATE]	> 30 µM (inactive)
CCn1c(=O)c(-c2cc[nH]n2)cc2c(C)nc(N)nc21 [VOXTALISIB]	> 30 µM (inactive)
O=C(Nc1ccc(-c2ccnc(Nc3ccc(N4CCOCC4)cc3)n2)cc1)C1CCCN1 (stereo not given) [XL-019]	> 30 µM (inactive)

Each compound was assayed against Myosin-10 (Homo sapiens, UniProt P35580).
Chain of Myosin-10 (P35580 whole entry): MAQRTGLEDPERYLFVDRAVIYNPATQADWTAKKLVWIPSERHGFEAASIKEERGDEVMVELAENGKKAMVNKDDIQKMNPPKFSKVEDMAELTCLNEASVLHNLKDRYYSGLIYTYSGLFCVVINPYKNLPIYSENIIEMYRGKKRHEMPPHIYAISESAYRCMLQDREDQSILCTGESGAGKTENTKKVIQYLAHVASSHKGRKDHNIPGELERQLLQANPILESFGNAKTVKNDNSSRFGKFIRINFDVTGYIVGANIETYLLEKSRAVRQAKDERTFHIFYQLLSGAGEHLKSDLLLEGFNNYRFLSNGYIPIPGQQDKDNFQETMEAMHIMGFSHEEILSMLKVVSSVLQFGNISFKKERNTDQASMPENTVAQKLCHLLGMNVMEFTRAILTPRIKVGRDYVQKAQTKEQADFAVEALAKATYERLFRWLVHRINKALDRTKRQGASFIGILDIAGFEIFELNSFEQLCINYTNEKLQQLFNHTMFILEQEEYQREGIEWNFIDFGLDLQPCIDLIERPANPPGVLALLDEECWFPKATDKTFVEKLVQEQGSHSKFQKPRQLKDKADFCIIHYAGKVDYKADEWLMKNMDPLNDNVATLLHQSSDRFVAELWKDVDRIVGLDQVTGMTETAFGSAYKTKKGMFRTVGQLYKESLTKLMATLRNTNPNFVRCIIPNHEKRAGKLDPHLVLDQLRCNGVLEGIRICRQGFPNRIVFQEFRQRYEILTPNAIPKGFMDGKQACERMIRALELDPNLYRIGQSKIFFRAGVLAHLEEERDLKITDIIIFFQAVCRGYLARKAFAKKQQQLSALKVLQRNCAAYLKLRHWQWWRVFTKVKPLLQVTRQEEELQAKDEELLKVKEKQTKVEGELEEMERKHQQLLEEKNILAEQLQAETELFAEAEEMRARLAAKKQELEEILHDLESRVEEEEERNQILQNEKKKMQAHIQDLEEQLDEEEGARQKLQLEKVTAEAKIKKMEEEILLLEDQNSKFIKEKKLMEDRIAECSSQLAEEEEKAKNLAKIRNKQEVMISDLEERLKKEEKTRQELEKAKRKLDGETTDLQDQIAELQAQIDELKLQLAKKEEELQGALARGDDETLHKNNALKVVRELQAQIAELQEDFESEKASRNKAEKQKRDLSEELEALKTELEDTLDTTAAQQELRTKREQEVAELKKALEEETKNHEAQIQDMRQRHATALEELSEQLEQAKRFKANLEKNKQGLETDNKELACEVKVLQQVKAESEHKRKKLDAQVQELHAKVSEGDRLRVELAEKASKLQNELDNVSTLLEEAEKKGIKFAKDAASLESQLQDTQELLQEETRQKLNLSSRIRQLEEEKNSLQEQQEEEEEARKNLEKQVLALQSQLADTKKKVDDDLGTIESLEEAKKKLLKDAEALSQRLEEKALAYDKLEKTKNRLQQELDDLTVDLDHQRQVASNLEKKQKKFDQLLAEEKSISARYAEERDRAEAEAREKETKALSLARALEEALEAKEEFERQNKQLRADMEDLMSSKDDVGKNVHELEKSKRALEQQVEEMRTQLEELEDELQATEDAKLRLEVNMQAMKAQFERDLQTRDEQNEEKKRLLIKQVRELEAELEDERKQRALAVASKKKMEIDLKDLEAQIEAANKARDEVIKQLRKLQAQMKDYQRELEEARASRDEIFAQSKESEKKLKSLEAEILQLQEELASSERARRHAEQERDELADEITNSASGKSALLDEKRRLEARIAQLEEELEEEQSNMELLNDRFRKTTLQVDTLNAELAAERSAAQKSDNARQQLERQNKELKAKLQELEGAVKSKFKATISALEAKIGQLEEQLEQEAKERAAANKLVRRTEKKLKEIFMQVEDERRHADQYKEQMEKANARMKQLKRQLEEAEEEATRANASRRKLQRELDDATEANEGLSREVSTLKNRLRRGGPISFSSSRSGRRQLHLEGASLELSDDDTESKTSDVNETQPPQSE

Structure (SMILES)	Kd
CN1N=C(N)c2cn([C@@H]3O[C@H](COP(=O)(O)O)[C@@H](O)[C@H]3O)c3ncnc1c23 [TRICIRIBINE PHOSPHATE]	> 30 µM (inactive)
CCn1c(=O)c(-c2cc[nH]n2)cc2c(C)nc(N)nc21 [VOXTALISIB]	> 30 µM (inactive)

These compounds were tested against T1, Eukaryotic translation initiation factor 5B (Homo sapiens, UniProt O60841).
T1 sequence (O60841 whole entry): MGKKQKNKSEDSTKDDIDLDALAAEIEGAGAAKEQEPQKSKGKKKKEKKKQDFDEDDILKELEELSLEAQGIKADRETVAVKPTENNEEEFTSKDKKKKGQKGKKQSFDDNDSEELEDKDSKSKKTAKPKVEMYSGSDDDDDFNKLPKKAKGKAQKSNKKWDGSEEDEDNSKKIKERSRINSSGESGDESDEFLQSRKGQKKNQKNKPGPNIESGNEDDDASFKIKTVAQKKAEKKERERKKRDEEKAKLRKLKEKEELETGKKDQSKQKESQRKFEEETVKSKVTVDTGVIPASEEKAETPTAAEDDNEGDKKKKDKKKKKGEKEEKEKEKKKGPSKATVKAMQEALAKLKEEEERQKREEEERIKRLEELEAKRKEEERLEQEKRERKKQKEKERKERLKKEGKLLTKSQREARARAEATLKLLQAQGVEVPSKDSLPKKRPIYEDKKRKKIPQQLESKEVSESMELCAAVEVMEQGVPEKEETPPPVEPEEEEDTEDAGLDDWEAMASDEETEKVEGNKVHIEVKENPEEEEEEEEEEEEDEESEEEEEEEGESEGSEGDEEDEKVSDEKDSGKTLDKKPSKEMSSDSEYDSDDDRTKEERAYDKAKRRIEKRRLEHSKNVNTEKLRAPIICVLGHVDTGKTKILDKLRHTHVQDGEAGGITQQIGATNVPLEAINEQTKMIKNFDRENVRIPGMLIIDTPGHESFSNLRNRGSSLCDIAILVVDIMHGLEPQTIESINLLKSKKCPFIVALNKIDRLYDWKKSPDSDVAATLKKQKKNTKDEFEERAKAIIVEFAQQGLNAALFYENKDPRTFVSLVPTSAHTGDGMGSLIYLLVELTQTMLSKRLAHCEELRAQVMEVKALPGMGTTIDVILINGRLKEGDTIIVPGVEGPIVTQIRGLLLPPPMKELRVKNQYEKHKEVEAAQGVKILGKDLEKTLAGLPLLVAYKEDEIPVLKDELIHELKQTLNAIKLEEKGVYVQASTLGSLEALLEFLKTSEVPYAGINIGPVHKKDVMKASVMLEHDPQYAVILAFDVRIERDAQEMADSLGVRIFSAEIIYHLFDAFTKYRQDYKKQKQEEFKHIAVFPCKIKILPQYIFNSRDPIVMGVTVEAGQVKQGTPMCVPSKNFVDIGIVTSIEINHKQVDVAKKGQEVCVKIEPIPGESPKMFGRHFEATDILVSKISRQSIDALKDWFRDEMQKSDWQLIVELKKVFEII

Structure (SMILES)	Kd
Cn1ncc(Cl)c1-c1cc(C(=O)N[C@H](CN)Cc2cccc(F)c2)sc1Cl [AFURESERTIB]	> 30 µM (inactive)
O=C(c1ccc(F)c(F)c1Nc1ccc(I)cc1F)N1CC(O)([C@@H]2CCCCN2)C1 [COBIMETINIB]	> 30 µM (inactive)
Cn1cc(-c2ccc(F)c(C(F)(F)F)c2)nc1C1CCN(c2ncnc3[nH]ncc23)CC1 [LY-2584702]	> 30 µM (inactive)
C=CC(=O)N1CCC(Oc2cc3c(Nc4ccc(Cl)c(Cl)c4F)ncnc3cc2OC)CC1 [POZIOTINIB]	> 30 µM (inactive)
C[C@@H](c1ccc2nccn2c1)n1nnc2ncc(-c3cnn(C)c3)nc21 [SAVOLITINIB]	> 30 µM (inactive)
Nc1nc(N)c2nc(-c3cccc(O)c3)c(-c3cccc(O)c3)nc2n1 [TG100-115]	> 30 µM (inactive)
CN1N=C(N)c2cn([C@@H]3O[C@H](COP(=O)(O)O)[C@@H](O)[C@H]3O)c3ncnc1c23 [TRICIRIBINE PHOSPHATE]	> 30 µM (inactive)
CCn1c(=O)c(-c2cc[nH]n2)cc2c(C)nc(N)nc21 [VOXTALISIB]	> 30 µM (inactive)
O=C(Nc1ccc(-c2ccnc(Nc3ccc(N4CCOCC4)cc3)n2)cc1)C1CCCN1 (stereo not given) [XL-019]	> 30 µM (inactive)

These compounds were tested against G protein-coupled receptor kinase 6 (Homo sapiens, UniProt P43250).
Chain of G protein-coupled receptor kinase 6 (P43250 whole entry): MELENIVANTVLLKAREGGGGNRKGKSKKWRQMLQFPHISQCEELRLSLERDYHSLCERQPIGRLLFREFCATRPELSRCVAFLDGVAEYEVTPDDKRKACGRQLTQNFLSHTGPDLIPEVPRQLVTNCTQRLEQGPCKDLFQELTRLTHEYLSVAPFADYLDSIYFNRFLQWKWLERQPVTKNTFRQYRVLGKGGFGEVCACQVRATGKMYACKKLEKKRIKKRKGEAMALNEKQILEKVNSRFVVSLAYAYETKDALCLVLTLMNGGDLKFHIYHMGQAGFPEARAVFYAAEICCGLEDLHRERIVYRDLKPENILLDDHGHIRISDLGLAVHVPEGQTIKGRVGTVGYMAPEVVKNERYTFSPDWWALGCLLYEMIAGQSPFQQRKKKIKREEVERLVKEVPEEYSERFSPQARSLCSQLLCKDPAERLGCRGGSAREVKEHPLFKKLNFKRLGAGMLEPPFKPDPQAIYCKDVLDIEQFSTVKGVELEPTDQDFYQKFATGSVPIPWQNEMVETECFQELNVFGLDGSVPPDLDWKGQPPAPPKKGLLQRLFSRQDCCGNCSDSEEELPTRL

Structure (SMILES)	Kd
C=CC(=O)N1CCC(Oc2cc3c(Nc4ccc(Cl)c(Cl)c4F)ncnc3cc2OC)CC1 [POZIOTINIB]	> 30 µM (inactive)
Nc1nc(N)c2nc(-c3cccc(O)c3)c(-c3cccc(O)c3)nc2n1 [TG100-115]	> 30 µM (inactive)
CN1N=C(N)c2cn([C@@H]3O[C@H](COP(=O)(O)O)[C@@H](O)[C@H]3O)c3ncnc1c23 [TRICIRIBINE PHOSPHATE]	> 30 µM (inactive)

The compounds below were run against T2, ATP-dependent RNA helicase DHX30 (Homo sapiens, UniProt Q7L2E3).
T2 sequence (Q7L2E3 whole entry): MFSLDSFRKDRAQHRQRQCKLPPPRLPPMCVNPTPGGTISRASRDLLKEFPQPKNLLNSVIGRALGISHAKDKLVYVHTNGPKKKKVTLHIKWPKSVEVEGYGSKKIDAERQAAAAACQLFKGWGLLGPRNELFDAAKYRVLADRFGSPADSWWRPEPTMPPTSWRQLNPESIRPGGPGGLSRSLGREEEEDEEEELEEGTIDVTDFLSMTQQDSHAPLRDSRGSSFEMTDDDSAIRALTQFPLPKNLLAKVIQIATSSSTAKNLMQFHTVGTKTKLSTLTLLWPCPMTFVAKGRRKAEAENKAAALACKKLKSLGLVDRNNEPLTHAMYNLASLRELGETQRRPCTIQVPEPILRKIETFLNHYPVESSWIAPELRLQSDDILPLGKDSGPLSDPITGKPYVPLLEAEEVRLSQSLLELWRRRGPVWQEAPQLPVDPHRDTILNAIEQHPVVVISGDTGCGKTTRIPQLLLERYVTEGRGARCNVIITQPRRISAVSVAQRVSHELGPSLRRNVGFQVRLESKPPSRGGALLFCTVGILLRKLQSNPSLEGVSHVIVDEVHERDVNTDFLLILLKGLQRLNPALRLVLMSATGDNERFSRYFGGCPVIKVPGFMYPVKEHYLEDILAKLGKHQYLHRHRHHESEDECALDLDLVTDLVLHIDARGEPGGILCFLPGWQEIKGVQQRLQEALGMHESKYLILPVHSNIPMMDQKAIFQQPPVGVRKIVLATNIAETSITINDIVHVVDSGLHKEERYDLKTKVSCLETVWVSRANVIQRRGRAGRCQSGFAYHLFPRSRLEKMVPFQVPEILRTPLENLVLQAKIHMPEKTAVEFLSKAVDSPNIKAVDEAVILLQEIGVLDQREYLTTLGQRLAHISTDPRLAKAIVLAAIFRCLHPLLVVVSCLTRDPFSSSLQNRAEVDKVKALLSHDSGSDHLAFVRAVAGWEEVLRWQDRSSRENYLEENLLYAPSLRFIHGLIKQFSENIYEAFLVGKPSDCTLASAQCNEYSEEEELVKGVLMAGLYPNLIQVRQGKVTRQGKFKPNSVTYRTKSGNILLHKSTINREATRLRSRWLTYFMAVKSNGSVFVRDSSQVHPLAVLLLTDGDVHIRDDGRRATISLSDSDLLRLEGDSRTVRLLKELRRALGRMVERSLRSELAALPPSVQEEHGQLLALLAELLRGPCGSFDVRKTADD

Structure (SMILES)	Kd
Cn1ncc(Cl)c1-c1cc(C(=O)N[C@H](CN)Cc2cccc(F)c2)sc1Cl [AFURESERTIB]	> 30 µM (inactive)
O=C(c1ccc(F)c(F)c1Nc1ccc(I)cc1F)N1CC(O)([C@@H]2CCCCN2)C1 [COBIMETINIB]	> 30 µM (inactive)
C=CC(=O)N1CCC(Oc2cc3c(Nc4ccc(Cl)c(Cl)c4F)ncnc3cc2OC)CC1 [POZIOTINIB]	> 30 µM (inactive)
Nc1nc(N)c2nc(-c3cccc(O)c3)c(-c3cccc(O)c3)nc2n1 [TG100-115]	> 30 µM (inactive)
CN1N=C(N)c2cn([C@@H]3O[C@H](COP(=O)(O)O)[C@@H](O)[C@H]3O)c3ncnc1c23 [TRICIRIBINE PHOSPHATE]	> 30 µM (inactive)
O=C(Nc1ccc(-c2ccnc(Nc3ccc(N4CCOCC4)cc3)n2)cc1)C1CCCN1 (stereo not given) [XL-019]	> 30 µM (inactive)

The compounds below were run against T3, Adenine phosphoribosyltransferase (Homo sapiens, UniProt P07741).
T3 sequence (P07741 whole entry): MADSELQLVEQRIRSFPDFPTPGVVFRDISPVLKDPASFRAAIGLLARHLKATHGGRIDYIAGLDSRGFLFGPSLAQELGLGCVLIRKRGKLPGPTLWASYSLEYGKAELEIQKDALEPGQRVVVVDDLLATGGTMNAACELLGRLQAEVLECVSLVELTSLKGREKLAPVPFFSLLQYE

Structure (SMILES)	Kd
Cn1cc(-c2ccc(F)c(C(F)(F)F)c2)nc1C1CCN(c2ncnc3[nH]ncc23)CC1 [LY-2584702]	> 30 µM (inactive)
C[C@@H](c1ccc2nccn2c1)n1nnc2ncc(-c3cnn(C)c3)nc21 [SAVOLITINIB]	> 30 µM (inactive)
CN1N=C(N)c2cn([C@@H]3O[C@H](COP(=O)(O)O)[C@@H](O)[C@H]3O)c3ncnc1c23 [TRICIRIBINE PHOSPHATE]	> 30 µM (inactive)
CCn1c(=O)c(-c2cc[nH]n2)cc2c(C)nc(N)nc21 [VOXTALISIB]	> 30 µM (inactive)
O=C(Nc1ccc(-c2ccnc(Nc3ccc(N4CCOCC4)cc3)n2)cc1)C1CCCN1 (stereo not given) [XL-019]	> 30 µM (inactive)

These compounds were tested against Dual specificity testis-specific protein kinase 2 (Homo sapiens, UniProt Q96S53).
Chain of Dual specificity testis-specific protein kinase 2 (Q96S53 whole entry): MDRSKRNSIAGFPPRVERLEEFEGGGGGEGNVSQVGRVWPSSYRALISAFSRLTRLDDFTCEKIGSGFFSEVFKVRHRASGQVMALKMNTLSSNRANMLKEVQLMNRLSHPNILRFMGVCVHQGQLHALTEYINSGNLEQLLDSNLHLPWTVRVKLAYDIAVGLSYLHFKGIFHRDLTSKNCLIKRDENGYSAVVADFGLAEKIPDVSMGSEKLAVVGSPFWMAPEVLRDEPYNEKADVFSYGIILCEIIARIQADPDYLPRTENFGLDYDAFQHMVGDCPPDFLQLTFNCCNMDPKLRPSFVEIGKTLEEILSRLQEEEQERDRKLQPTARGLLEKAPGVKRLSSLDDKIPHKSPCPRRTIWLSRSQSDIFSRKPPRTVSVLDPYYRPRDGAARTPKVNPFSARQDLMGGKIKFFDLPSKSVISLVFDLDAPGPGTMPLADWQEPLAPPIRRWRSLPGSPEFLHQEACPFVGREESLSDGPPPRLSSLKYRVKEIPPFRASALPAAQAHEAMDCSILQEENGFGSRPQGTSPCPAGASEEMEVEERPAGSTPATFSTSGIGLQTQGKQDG

Structure (SMILES)	Kd
O=C(c1ccc(F)c(F)c1Nc1ccc(I)cc1F)N1CC(O)([C@@H]2CCCCN2)C1 [COBIMETINIB]	> 30 µM (inactive)
Cn1cc(-c2ccc(F)c(C(F)(F)F)c2)nc1C1CCN(c2ncnc3[nH]ncc23)CC1 [LY-2584702]	> 30 µM (inactive)
C=CC(=O)N1CCC(Oc2cc3c(Nc4ccc(Cl)c(Cl)c4F)ncnc3cc2OC)CC1 [POZIOTINIB]	> 30 µM (inactive)
C[C@@H](c1ccc2nccn2c1)n1nnc2ncc(-c3cnn(C)c3)nc21 [SAVOLITINIB]	> 30 µM (inactive)
Nc1nc(N)c2nc(-c3cccc(O)c3)c(-c3cccc(O)c3)nc2n1 [TG100-115]	> 30 µM (inactive)

These compounds were tested against Obg-like ATPase 1 (Homo sapiens, UniProt Q9NTK5).
Chain of Obg-like ATPase 1 (Q9NTK5 whole entry, looked up): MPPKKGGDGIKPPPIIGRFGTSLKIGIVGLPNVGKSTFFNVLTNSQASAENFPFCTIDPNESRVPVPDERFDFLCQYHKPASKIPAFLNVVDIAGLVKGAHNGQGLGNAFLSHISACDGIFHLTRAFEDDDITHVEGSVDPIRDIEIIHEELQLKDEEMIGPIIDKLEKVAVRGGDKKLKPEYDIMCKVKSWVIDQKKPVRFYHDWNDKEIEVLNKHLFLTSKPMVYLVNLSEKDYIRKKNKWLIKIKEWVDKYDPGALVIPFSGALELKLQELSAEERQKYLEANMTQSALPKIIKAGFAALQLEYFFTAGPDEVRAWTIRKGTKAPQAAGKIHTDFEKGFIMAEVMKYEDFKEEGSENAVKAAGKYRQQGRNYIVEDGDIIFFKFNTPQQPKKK

Structure (SMILES)	Kd
Cn1cc(-c2ccc(F)c(C(F)(F)F)c2)nc1C1CCN(c2ncnc3[nH]ncc23)CC1 [LY-2584702]	> 30 µM (inactive)
C=CC(=O)N1CCC(Oc2cc3c(Nc4ccc(Cl)c(Cl)c4F)ncnc3cc2OC)CC1 [POZIOTINIB]	> 30 µM (inactive)
Nc1nc(N)c2nc(-c3cccc(O)c3)c(-c3cccc(O)c3)nc2n1 [TG100-115]	> 30 µM (inactive)
CN1N=C(N)c2cn([C@@H]3O[C@H](COP(=O)(O)O)[C@@H](O)[C@H]3O)c3ncnc1c23 [TRICIRIBINE PHOSPHATE]	> 30 µM (inactive)
CCn1c(=O)c(-c2cc[nH]n2)cc2c(C)nc(N)nc21 [VOXTALISIB]	> 30 µM (inactive)
O=C(Nc1ccc(-c2ccnc(Nc3ccc(N4CCOCC4)cc3)n2)cc1)C1CCCN1 (stereo not given) [XL-019]	> 30 µM (inactive)
